The results in this text go back to patent publication US11596165B2, “Compositions, their use, and methods for their formation” (Cambridge Glycoscience Ltd, priority 2018, dated 2023).

Data set [1] can be described thus: Solubility of cellobiose when combined with xylo-oligosaccharides. It counts as physicochemical. The conditions noted are these: 20-320 mg/mL, vortexed 30 seconds, in the presence of half or the same concentration of xylo-oligosaccharides (e.g., at 80 mg/mL). Here is the method:
1. Solutions/suspensions of cellobiose at concentrations from 20-320 mg/mL were vortexed for 30 seconds alone (FIG. 4, panel a), in the presence of half the concentration of xylo-oligosaccharides (FIG. 4, panel b), or the same concentration of xylo-oligosaccharides (FIG. 4, panel c).

A short description of data set [2]: Hygroscopicity of oligosaccharide powder at 25° C. in 100% humidity. The conditions noted are these: 5 g, 10 hours at 25° C. in 100% humidity. It is filed as physicochemical. The source says: The compositions are to be used in a wide range of foodstuff, cosmetic, or nutraceutical applications, therefore the required hygroscopicity for each application can vary. The aim of this example was to test if hygroscopicity can be adapted by altering the oligosaccharide compositions. • 1. 5 g of oligosaccharide compositions (cellobiose, 4:1 cellobiose:xylo-oligosaccharide, 3:2 cellobiose:xylo-oligosaccharide, 2:3 cellobiose:xylo-oligosaccharide, 1:4 cellobiose:xylo-oligosaccharide, xylo-oligosaccharide) were incubated for 10 hours at 25° C. in 100% humidity. • 2.

Consider `O=C[C@H](O)[C@@H](O)[C@H](O[C@@H]1O[C@H](CO)[C@@H](O)[C@H](O)[C@H]1O)[C@H](O)CO` [cellobiose], for which, in data set [1], the dissolution of cellobiose entry is given as “enabled more readily at higher concentrations”. The water uptake entry in data set [2] is “effectively resisted water uptake”.
